# Molecular target: T1, human capsaicin receptor (Homo sapiens, UniProt Q8NER1)
# T1 construct: pBK-CMV expression construct encoding the full length human capsaicin receptor; expressed in transfected cells
# Experiment: Calcium mobilization assay, determination of antagonist activity (Example 6)
# Format: cell-based
# Settings: Table II; IC50 determined as described in Example 6
# Experimental: A cDNA encoding full length human capsaicin receptor (SEQ ID NO: 1, 2 or 3 of U.S. Pat. No. 6,482,611) was subcloned in the plasmid pBK-CMV (Stratagene, La Jolla, Calif.) for recombinant expression in mammalian cells.
# Human embryonic kidney (HEK293) cells were transfected with the pBK-CMV expression construct encoding the full length human capsaicin receptor using standard methods. The transfected cells were selected for two weeks in media containing G418 (400 μg/ml) to obtain a pool of stably transfected cells. Independent clones were isolated from this pool by limiting dilution to obtain clonal stable cell lines for use in subsequent experiments.
# This Example illustrates representative calcium mobilization assays for use in evaluating test compounds for agonist and antagonist activity.
# Cells transfected with expression plasmids (as described in Example 4) and thereby expressing human capsaicin receptor are seeded and grown to 70-90% confluency in FALCON black-walled, clear-bottomed 96-well plates (#3904, BECTON-DICKINSON, Franklin Lakes, N.J.). The culture medium is emptied from the 96 well plates and FLUO-3 AM calcium sensitive dye (Molecular Probes, Eugene, Oreg.) is added to each well (dye solution: 1 mg FLUO-3 AM, 440 μL DMSO and 440 pi 20% pluronic acid in DMSO, diluted 1:250 in Krebs-Ringer HEPES (KRH) buffer (25 mM HEPES, 5 mM KCl, 0.96 mM NaH2PO4, 1 mM MgSO4, 2 mM CaCl2, 5 mM glucose, 1 mM probenecid, pH 7.4), 50 μl diluted solution per well). Plates are covered with aluminum foil and incubated at 37° C. for 1-2 hours in an environment containing 5% CO2. After the incubation, the dye is emptied from the plates, and the cells are washed once with KRH buffer, and resuspended in KRH buffer.
# To measure the ability of a test compound to agonize or antagonize a calcium mobilization response in cells expressing capsaicin receptors to capsaicin or other vanilloid agonist, the EC50 of the agonist capsaicin is first determined. An additional 20 μl of KRH buffer and 1 μl DMSO is added to each well of cells, prepared as described above. 100 μl capsaicin in KRH buffer is automatically transferred by the FLIPR instrument to each well. Capsaicin-induced calcium mobilization is monitored using either FLUOROSKAN ASCENT (Labsystems; Franklin, Mass.) or FLIPR (fluorometric imaging plate reader system; Molecular Devices, Sunnyvale, Calif.) instruments. Data obtained between 30 and 60 seconds after agonist application are used to generate an 8-point concentration response curve, with final capsaicin concentrations of 1 nM to 3 μM. KALEIDAGRAPH software (Synergy Software, Reading, Pa.) is used to fit the data to the equation: y=a*(1/(1+(b/x)^c)) to determine the 50% excitatory concentration (EC50) for the response. In this equation, y is the maximum fluorescence signal, x is the concentration of the agonist or antagonist (in this case, capsaicin), a is the Emax, b corresponds to the EC50 value and c is the Hill coefficient. Determination of Agonist Activity
# Test compounds are dissolved in DMSO, diluted in 20 μl KRH buffer so that the final concentration of test compounds in the assay well is between 1 μM and 5 μM, and added to cells prepared as described above. The 96 well plates containing prepared cells and test compounds are incubated in the dark, at room temperature for 0.5 to 6 hours. It is important that the incubation not continue beyond 6 hours. Just prior to determining the fluorescence response, 100 pi capsaicin in KRH buffer at twice the EC50 concentration determined as described above is automatically added by the FLIPR instrument to each well of the 96 well plate for a final sample volume of 200 μl and a final capsaicin concentration equal to the EC50. The final concentration of test compounds in the assay wells is between 1 μM and 5 μM. […]
# T1 sequence (Q8NER1 whole entry): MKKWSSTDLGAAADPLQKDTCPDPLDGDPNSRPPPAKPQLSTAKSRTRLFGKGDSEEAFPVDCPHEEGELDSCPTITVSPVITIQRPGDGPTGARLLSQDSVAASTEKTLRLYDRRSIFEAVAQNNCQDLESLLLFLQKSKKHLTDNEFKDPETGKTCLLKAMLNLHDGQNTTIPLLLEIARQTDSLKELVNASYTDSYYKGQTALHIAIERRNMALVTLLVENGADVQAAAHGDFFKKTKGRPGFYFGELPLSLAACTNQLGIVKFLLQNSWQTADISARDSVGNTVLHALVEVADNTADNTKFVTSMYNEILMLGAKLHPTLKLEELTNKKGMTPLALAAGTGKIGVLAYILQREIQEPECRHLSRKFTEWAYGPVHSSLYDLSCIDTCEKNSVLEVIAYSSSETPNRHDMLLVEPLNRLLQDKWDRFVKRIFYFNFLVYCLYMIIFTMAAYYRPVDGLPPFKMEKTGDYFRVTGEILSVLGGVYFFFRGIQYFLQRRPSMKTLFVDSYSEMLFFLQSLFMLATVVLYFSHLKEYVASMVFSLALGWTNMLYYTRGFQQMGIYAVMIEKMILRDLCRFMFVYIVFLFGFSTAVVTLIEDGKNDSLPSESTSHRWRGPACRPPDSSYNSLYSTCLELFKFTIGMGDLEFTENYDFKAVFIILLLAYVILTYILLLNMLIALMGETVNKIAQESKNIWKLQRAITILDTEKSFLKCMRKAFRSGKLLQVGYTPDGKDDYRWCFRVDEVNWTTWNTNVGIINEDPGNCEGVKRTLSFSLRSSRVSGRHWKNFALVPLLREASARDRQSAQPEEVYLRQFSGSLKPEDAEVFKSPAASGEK
row,IC50,Compound
1,≤ 1 µM,"Fc1ccc(-c2nc(N3CCOCC3)nc(N3CCN(c4ncccc4C(F)(F)F)CC3)n2)cc1Cl [Example 426, 2-(3-chioro-4-fluorophenyl)-4-morpholin-4-yl-6-{4-[3-(trifluoromethyl)pyridin-2-yl]piperazin-1-yl}-1,3,5-triazine]"
2,≤ 1 µM,"Fc1ccc(-c2nc(N3CCOCC3)nc(N3CCN(c4ncccc4C(F)(F)F)CC3)n2)cc1F [Example 428, 2-(3,4-difluorophenyl)-4-morpholin-4-yl-6-{4-[3-(trifluoromethyl)pyridin-2-yl]piperazin-1-yl}-1,3,5-triazine]"
3,≤ 1 µM,"N#Cc1cccc(-c2nc(N3CCOCC3)nc(N3CCN(c4ncccc4C(F)(F)F)CC3)n2)c1 [Example 435, 3-(4-morpholin-4-yl-6-{4-[3-(trifluoromethyl)pyridin-2-yl]piperazin-1-yl}-1,3,5-triazin-2-yl)benzonitrile]"
4,≤ 1 µM,"N#Cc1ccc(-c2nc(N3CCOCC3)nc(N3CCN(c4ncccc4C(F)(F)F)CC3)n2)cc1 [Example 436, 4-(4-morpholin-4-yl-6-{4-[3-(trifluoromethyl)pyridin-2-yl]piperazin-1-yl}-1,3,5-triazin-2-yl)benzonitrile]"
5,≤ 1 µM,"FC(F)(F)c1cccc(-c2nc(N3CCOCC3)nc(N3CCN(c4ncccc4C(F)(F)F)CC3)n2)c1 [Example 438, 2-morpholin-4-yl-4-[3-(trifluoromethyl)phenyl]-6-{4-[3-(trifluoromethyl)pyridin-2-yl]piperazin-1-yl}-1,3,5-triazine]"
6,≤ 1 µM,"C=CCN1CCN(c2nc(-c3ccccc3)nc(N3CCN(c4ncccc4C(F)(F)F)CC3)n2)CC1 [Example 440, 2-(4-allylpiperazin-1-yl)-4-phenyl-6-{4-[3-(trifluoromethyl)pyridin-2-yl]piperazin-1-yl}-1,3,5-triazine]"
7,≤ 1 µM,"C=CCN1CCN(c2nc(-c3cccc(Cl)c3)nc(N3CCN(c4ncccc4C(F)(F)F)CC3)n2)CC1 [Example 441, 2-(4-allylpiperazin-1-yl)-4-(3-chlorophenyl)-6-{4-[3-(trifluoromethyl)pyridin-2-yl]piperazin-1-yl}-1,3,5-triazine]"
8,≤ 1 µM,"CCCCN1CCN(c2nc(-c3cccc(Cl)c3)nc(N3CCN(c4ncccc4C(F)(F)F)CC3)n2)CC1 [Example 444, 2-(4-butylpiperazin-1-yl)-4-(3-chlorophenyl)-6-{4-[3-(trifluoromethyl)pyridin-2-yl]piperazin-1-yl}-1,3,5-triazine]"
9,≤ 1 µM,"C=CCN1CCN(c2nc(-c3ccc(Cl)cc3)nc(N3CCN(c4ncccc4C(F)(F)F)CC3)n2)CC1 [Example 445, 2-(4-allylpiperazin-1-yl)-4-(4-chlorophenyl)-6-{4-[3-(trifluoromethyl)pyridin-2-yl]piperazin-1-yl}-1,3,5-triazine]"
10,≤ 1 µM,"C=CCN1CCN(c2nc(-c3ccc(F)cc3)nc(N3CCN(c4ncccc4C(F)(F)F)CC3)n2)CC1 [Example 446, 2-(4-allylpiperazin-1-yl)-4-(4-fluorophenyl)-6-{4-[3-(trifluoromethyl)pyridin-2-yl]piperazin-1-yl}-1,3,5-triazine]"
11,≤ 1 µM,"C=CCN1CCN(c2nc(-c3cccc(F)c3)nc(N3CCN(c4ncccc4C(F)(F)F)CC3)n2)CC1 [Example 448, 2-(4-allylpiperazin-1-yl)-4-(3-fluorophenyl)-6-{4-[3-(trifluoromethyl)pyridin-2-yl]piperazin-1-yl}-1,3,5-triazine]"
12,≤ 1 µM,"C=CCN1CCN(c2nc(-c3ccc(F)c(C)c3)nc(N3CCN(c4ncccc4C(F)(F)F)CC3)n2)CC1 [Example 450, 2-(4-allylpiperazin-1-yl)-4-(4-fluoro-3-methylphenyl)-6-{4-[3-(trifluoromethyl)pyridin-2-yl]piperazin-1-yl}-1,3,5-triazine]"
13,≤ 1 µM,"CCCCN1CCN(c2nc(-c3ccc(F)c(C)c3)nc(N3CCN(c4ncccc4C(F)(F)F)CC3)n2)CC1 [Example 452, 2-(4-butylpiperazin-1-yl)-4-(4-fluoro-3-methylphenyl)-6-{4-[3-(trifluoromethyl)pyridin-2-yl]piperazin-1-yl}-1,3,5-triazine]"
14,≤ 1 µM,"C=CCN1CCN(c2nc(-c3cccc(C)c3)nc(N3CCN(c4ncccc4C(F)(F)F)CC3)n2)CC1 [Example 453, 2-(4-allylpiperazin-1-yl)-4-(3-methylphenyl)-6-{4-[3-(trifluoromethyl)pyridin-2-yl]piperazin-1-yl}-1,3,5-triazine]"

# Second part, the compound before the results:
row,Compound,IC50
1,"Fc1ccc(-c2nc(N3CCOCC3)nc(N3CCN(c4ncccc4Cl)CC3)n2)cc1Cl [Example 427, 2-(3-chloro-4-fluorophenyl)-4-[4-(3-chloropyridin-2-yl)piperazin-1-yl]-6-morpholin-4-yl-1,3,5-triazine]",≤ 1 µM
2,"COc1ccc(C(C)C)cc1-c1nc(N2CCOCC2)nc(N2CCN(c3ccccn3)CC2)n1 [Example 430, 2-(5-isopropyl-2-methoxyphenyl)-4-morpholin-4-yl-6-(4-pyridin-2-ylpiperazin-1-yl)-1,3,5-triazine]",≤ 1 µM
3,"COc1ccc(Cl)cc1-c1nc(N2CCOCC2)nc(N2CCN(c3ccccn3)CC2)n1 [Example 431, 2-(5-chloro-2-methoxyphenyl)-4-morpholin-4-yl-6-(4-pyridin-2-ylpiperazin-1-yl)-1,3,5-triazine]",≤ 1 µM
4,"c1ccc(N2CCN(c3nc(-c4cccc5c4oc4ccccc45)nc(N4CCOCC4)n3)CC2)nc1 [Example 432, 2-dibenzo[b,d]furan-4-yl-4-morpholin-4-yl-6-(4-pyridin-2-ylpiperazin-1-yl)-1,3,5-triazine]",≤ 1 µM
5,"CCOC(=O)c1cccc(-c2nc(N3CCOCC3)nc(N3CCN(c4ccccn4)CC3)n2)c1 [Example 434, ethyl 3-[4-morpholin-4-yl-6-(4-pyridin-2-ylpiperazin-1-yl)-1,3,5-triazin-2-yl]benzoate]",≤ 1 µM
6,"FC(F)(F)c1ccc(-c2nc(N3CCOCC3)nc(N3CCN(c4ncccc4C(F)(F)F)CC3)n2)cc1 [Example 437, 2-morpholin-4-yl-4-[4-(trifluoromethyl)phenyl]-6-{4-[3-(trifluoromethyl)pyridin-2-yl]piperazin-1-yl}-1,3,5-triazine]",≤ 1 µM
7,"C[C@@H]1CN(c2ncccc2C(F)(F)F)CCN1c1cc(-c2ccccc2)nc(N2CCOCC2)n1 [Example 478, 4-(4-{(2R)-2-methyl-4-[3-(trifluoromethyl)pyridin-2-yl]piperazin-1-yl}-6-phenylpyrimidin-2-yl)morpholine]",≤ 1 µM
8,"C[C@@H]1CN(c2ncccc2Cl)CCN1c1cc(-c2ccccc2)nc(N2CCOCC2)n1 [Example 479, 4-{4-[(2R)-4-(3-chloropyridin-2-yl)-2-methylpiperazin-1-yl]-6-phenylpyrimidin-2-yl}morpholine]",≤ 1 µM
9,"Cc1cccnc1N1CCN(c2cc(-c3cccc(Cl)c3)nc(N3CCOCC3)n2)[C@H](C)C1 [Example 480, 4-{4-(3-chlorophenyl)-6-[(2R)-2-methyl-4-(3-methylpyridin-2-yl)piperazin-1-yl]pyrimidin-2-yl}morpholine]",≤ 1 µM
10,"C[C@@H]1CN(c2ncccc2Cl)CCN1c1cc(-c2cccc(Cl)c2)nc(N2CCOCC2)n1 [Example 481, 4-{4-(3-chlorophenyl)-6-[(2R)-4-(3-chloropyridin-2-yl)-2-methylpiperazin-1-yl]pyrimidin-2-yl}morpholine]",≤ 1 µM
11,"C[C@@H]1CN(c2ncccc2C#N)CCN1c1cc(-c2ccc(Cl)cc2)nc(N2CCOCC2)n1 [Example 482, 2-{(3R)-4-[6-(4-chlorophenyl)-2-morpholin-4-ylpyrimidin-4-yl]-3-methylpiperazin-1-yl}nicotinonitrile]",≤ 1 µM

# Reference: patent publication US7566712B2, “Biaryl piperazinyl-pyridine analogues” (Neurogen Corporation, priority 2003, dated 2009)
